Assay results taken from patent US11168094B2, “Quinolinone derivative and pharmaceutical composition for preventing or treating allergic diseases such as asthma or atopic dermatitis including the quinolinone derivative as active ingredient” (Azcuris Co., Ltd., priority 2017, dated 2021).

Assays:
TSLP-TSLPR interaction = target: T1, TSLP-TSLPR interaction (Homo sapiens, UniProt Q969D9); assay: ELISA-based TSLP-TSLPR interaction assay; assay type: binding; conditions: for inhibition at 100 µM: compound 0.1 mM; for inhibition at 100 µM / inhibition at 300 µM / inhibition at 1000 µM: FLAG-TSLP / TSLPR-His ELISA, OD 450 nm; for inhibition at 300 µM: compound 0.3 mM; for inhibition at 1000 µM: compound 1 mM
T1 construct: made in house
Experimental: To this end, home-made FLAG-TSLP protein and TSLPR-His protein were used to establish an ELISA-based TSLP-TSLPR interaction assay for measuring reactions with HRP. The inhibitory activities of the inventive compounds were evaluated by the interaction assay.
ELISA assay was conducted using an Ni-NTA HisSorb plate (Qiagen, Germany). 100 μL of a solution of TSLPR C-terminally tagged with hexahistidine (His) was dispensed into each well of the plate and incubated at room temperature for 2 h. After each well was washed twice with 200 μL of PBS and 0.05% Tween-20, 100 μL of a solution of each of the inventive compounds as a sample and 100 μL of TSLP N-terminally tagged with FLAG was dispensed into the well. After incubation at 4° C. overnight, each well was washed twice and treated with 100 μL of a blocking buffer (PBS-0.05% Tween 20 and 1% nonfat dry milk). The plate was washed twice, coated with 100 μL of a monoclonal anti-FLAG horseradish peroxidase antibody (Sigma-Aldrich Co., USA) for 2 h, and incubated at room temperature. Then, each well was washed 5 times, treated with 200 μL of a solution of o-phenylenediaminedihydrochloride (Sigma-Aldrich Co., USA), incubated for 30 min, and added with 1 N HCl.
Optical densities (ODs) were measured at 450 nm using a microplate spectrophotometer. The inhibitory effect of the compound on TSLP-TSLPR interaction was calculated using the following equation: Inhibition (inhibitory effect) (%)=(1−ODsample/ODcontrol)×100

IL-33 [1] = target: T2, IL-33 (Homo sapiens, UniProt O95760); assay: Inhibition of IL-6 secretion by IL-33 inhibition in HMC-1 cells (IL-6 ELISA); assay type: cell-based; conditions: HMC1, HMC-1 cells with IL-33, 24 h, negative values indicate increased IL-6 secretion
T2 sequence (O95760 95-270): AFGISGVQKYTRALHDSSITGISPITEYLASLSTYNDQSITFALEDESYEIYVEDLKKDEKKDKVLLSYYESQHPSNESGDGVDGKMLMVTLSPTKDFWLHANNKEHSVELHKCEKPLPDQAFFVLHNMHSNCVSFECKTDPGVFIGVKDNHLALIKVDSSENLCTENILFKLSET
Experimental: First, HMC-1, a human mast cell line, was cultured until an appropriate number of cells was maintained in a 96-well plate. Mixtures of IL-33 and different concentrations (0.3, 3, and 30 μM) of each of the inventive compounds were treated on cells, incubated at 37° C. for 24 h, and centrifuged. The supernatants were analyzed for IL-6 secretion using an IL-6 ELISA kit (Biolegend, USA).

[2] = tested on: HDM-induced allergic airway inflammation; assay: House dust mite (HDM)-induced allergic airway inflammation mouse models; assay type: in vivo; conditions: 200 μg intraperitoneal, BALB/c mice, day 11, vs untreated controls (FIG. 4 and 5)
Experimental: Splenocytes were isolated from DO11.10 mice and ˜1×10^6CD4T cells were transferred to pure BALB/c mice by intravenous injection. For 3 days from the next day, 100 μg of a mixture of HDM (Dermatophagoidesfarinae 50 μg, Dermatophagoidespteronyssinus 50 μg, Greer Laboratories, Inc., USA) and OVA (Sigma-Aldrich Co., USA) was administered intranasally to the mice. From day 2 after administration, the mice were treated with 200 μg of each of the inventive compounds or PBS (for control mice) three times daily through the intraperitoneal route. After the mice were euthanized on day 11, the numbers of total cells and eosinophils in the airways were checked. The treatment schedule with the Formula 5 (KB 1517) and Formula 10 (KB 1518) (200 μg each) in house dust mite (HDM)-induced allergic airway inflammation mouse models is shown in FIG. 8.

IL-33 [3] = target: T2, IL-33; assay: Inhibition of IL-6 secretion by IL-33 inhibition in HMC-1 cells (IL-6 ELISA); assay type: cell-based; conditions: HMC1, HMC-1 cells with IL-33, 24 h, negative values indicate increased IL-6 secretion; remark: listed apart in the source

| Molecule | inhibition at 100 µM (TSLP-TSLPR interaction) [%] | inhibition at 300 µM (TSLP-TSLPR interaction) [%] | inhibition at 3 µM (IL-33 [1]) [%] | inhibition at 0.3 µM (IL-33 [1]) [%] | inhibition at 0.03 µM (IL-33 [3]) [%] | Inhibition (%) (TSLP-TSLPR interaction; 1 mg/mL FLAG tag-free TSLP as competitor) | inhibition at 1000 µM (TSLP-TSLPR interaction) [%] | number of eosinophils in the airways [2] | number of total cells in the airways [2] |
| --- | --- | --- | --- | --- | --- | --- | --- | --- | --- |
| CN(C)CCn1c(=O)c2nc(-c3ccccc3)oc2c2ccccc21 [Compound 2, 5-(2-(dimethylamino)ethyl)-2-phenyloxazolo[4,5-c]quinolin-4(5H)-one] | 26.7 | 49 | -11.8 |  |  |  | 66.9 |  |  |
| CN(C)CCn1c(=O)c2nc(-c3ccc(F)cc3)oc2c2ccccc21 [Compound 3, 5-(2-(dimethylamino)ethyl)-2-(4-fluorophenyl)oxazolo[4,5-c]quinolin-4(5H)-one] | 17.7 | 27.5 | 29.8 |  |  |  |  |  |  |
| CN(C)CCn1c(=O)c2nc(-c3ccc(Cl)cc3)oc2c2ccccc21 [Compound 4, 2-(4-chlorophenyl)-5-(2-(dimethylamino)ethyl)oxazolo[4,5-c]quinolin-4(5H)-one] | 28.8 | 46.6 | 29.7 | 22.5 |  |  |  |  |  |
| CN(C)CCn1c(=O)c2nc(-c3ccc(C(F)(F)F)cc3)oc2c2ccccc21 [Compound 5, 5-(2-(dimethylamino)ethyl)-2-(4-(trifluoromethyl)phenyl)oxazolo[4,5-c]quinolin-4(5H)-one] | 23.2 | 29.6 | 28.2 | 30.4 |  |  |  | significantly reduced | significantly reduced |
| CN(C)CCOc1nc2ccccc2c2oc(-c3ccccc3)nc12 [Compound 7, N,N-dimethyl-2-((2-phenyloxazolo[4,5-c]quinolin-4-yl)oxy)ethanamine] | 27.8 | 54.6 | 35.6 |  |  |  | 57.2 |  |  |

The next lines start with results.

| inhibition at 100 µM (TSLP-TSLPR interaction) [%] | inhibition at 300 µM (TSLP-TSLPR interaction) [%] | inhibition at 3 µM (IL-33 [1]) [%] | inhibition at 0.3 µM (IL-33 [1]) [%] | inhibition at 0.03 µM (IL-33 [3]) [%] | Inhibition (%) (TSLP-TSLPR interaction; 1 mg/mL FLAG tag-free TSLP as competitor) | Molecule | inhibition at 1000 µM (TSLP-TSLPR interaction) [%] | number of eosinophils in the airways [2] | number of total cells in the airways [2] |
| --- | --- | --- | --- | --- | --- | --- | --- | --- | --- |
| 25.8 | 54.7 | -57.8 |  |  |  | COc1ccc(-c2nc3c(=O)n(CCN(C)C)c4ccccc4c3o2)cc1 [Compound 6, 5-(2-(dimethylamino)ethyl)-2-(4-methoxyphenyl)oxazolo[4,5-c]quinolin-4(5H)-one] |  |  |  |
|  |  | 51.3 | 49.3 | 32.7 |  | CN(C)CCOc1nc2ccccc2c2oc(-c3ccc(C(F)(F)F)cc3)nc12 [Compound 10, N,N-dimethyl-2-((2-(4-(trifluoromethyl)phenyl)oxazolo[4,5-c]quinolin-4-yl)oxy)ethanamine] |  | significantly reduced | significantly reduced |
|  |  |  |  |  | 40.7 | FLAG tag-free TSLP: TSLP protein without FLAG tag, 1 mg/mL, competitor control in the TSLP-TSLPR ELISA [reference compound] |  |  |  |
